Patent US9079866B2, “Flap modulators” (JANSSEN PHARMACEUTICA NV, priority 2013, dated 2015)
Where a name gives a salt, the structure may show the parent alone. Read-outs that look alike come from different tables or passages of the source.

Assays:
human FLAP = human FLAP (Homo sapiens (Human), UniProt P20292); assay: FLAP binding assay (HTRF format)
Procedure, shortened: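 Binding of compounds to FLAP read out as HTRF ratio. Values are the mean of two assay plates, each sample run in duplicate per plate.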

[1] = test system: leukotriene pathway in human whole blood (LTB4 levels); assay: Human whole blood assay (A23187-stimulated LTB4); assay type: cell-based; conditions: Homo sapiens, read-out: LTB4 IC50 1:1
Procedure, shortened: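 Heparinised human whole blood diluted 1:1 in RPMI, pre-incubated 15 min at 37° Celsius with compound, then stimulated with A23187 (7 μg/mL) for 30 min at 37° Celsius. Plasma LTB4 measured by immunoassay kit; IC50 from 4-parameter fit; single replicate per plate, at least one healthy donor.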

[2] = human FLAP wild type, HTRF format, average of two plates, duplicates
[3] = human whole blood diluted 1:1 in RPMI, A23187-stimulated LTB4
[4] = human whole blood diluted 1:1, A23187-stimulated

Chain of human FLAP (P20292 whole entry): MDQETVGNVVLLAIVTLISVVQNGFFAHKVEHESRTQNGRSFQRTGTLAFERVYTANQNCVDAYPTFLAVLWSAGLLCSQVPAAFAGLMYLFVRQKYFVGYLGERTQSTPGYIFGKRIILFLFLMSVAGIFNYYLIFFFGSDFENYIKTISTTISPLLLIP

Row | SMILES | Ki (human FLAP; [2]) | IC50 [1, 3] | Ki (human FLAP; wild type FLAP, HTRF format) | IC50 [1, 4] | Ki (human FLAP; read-out: FLAP Binding wild type HTRF Ki)
1 | Nc1cnc(-c2ccc(-c3ccc(C(F)(F)F)cc3S(=O)(=O)N3CCNC(=O)C3)cc2F)cn1 [Example 209, 4-{[4′-(5-Aminopyrazin-2-yl)-3′-fluoro-4-(trifluoromethyl)biphenyl-2-yl]sulfonyl}piperazin-2-one] | 1 nM | 34 nM | – | – | –
2 | N#CC1CCN(S(=O)(=O)c2ccccc2-c2ccc(-c3cnc(N)cn3)c(F)c2)CC1 [Example 64, 1-{[4′-(5-Aminopyrazin-2-yl)-3′-fluorobiphenyl-2-yl]sulfonyl}piperidine-4-carbonitrile] | 2 nM | 6 nM | – | – | –
3 | CC(C)[C@H](CO)NS(=O)(=O)c1ccccc1-c1ccc(-c2cnc(N)cn2)c(F)c1 [Example 109, (R)-4′-(5-Aminopyrazin-2-yl)-3′-fluoro-N-[1-(hydroxymethyl)-2-methylpropyl]biphenyl-2-sulfonamide] | 1 nM | 18 nM | – | – | –
4 | CN(c1ccccc1-c1ccc(-c2cnc(N)cn2)c(F)c1)S(C)(=O)=O [Example 490, N-[4′-(5-Aminopyrazin-2-yl)-3′-fluorobiphenyl-2-yl]-N-methylmethanesulfonmide] | – | – | 354 nM | 269 nM | –
5 | Nc1ncc(-c2ccc(-c3ccccc3Sc3cnccn3)cc2F)cn1 [Example 333, 5-[3-Fluoro-2′-(pyrazin-2-ylsulfanyl)biphenyl-4-yl]pyrimidin-2-amine hydrochloride] | 45 nM | 671 nM | – | – | –
6 | Nc1nnc(-c2ccc(-c3ccccc3S(=O)(=O)N3CCS(=O)(=O)CC3)cc2F)s1 [Example 440, 4-((4′-(5-Amino-1,3,4-thiadiazol-2-yl)-3′-fluoro-[1,1′-biphenyl]-2-yl)sulfonyl)thiomorpholine 1,1-dioxide] | – | – | 31 nM | 215 nM | –
7 | CC(C)[C@H](CO)NS(=O)(=O)c1ccccc1-c1ccc(-c2cnc(N)nc2)c(F)c1 [Example 273, 4′-(2-Aminopyrimidin-5-yl)-3′-fluoro-N-[(1R)-1-(hydroxymethyl)-2-methylpropyl]biphenyl-2-sulfonamide trifluoroacetic acid salt] | 9 nM | 105 nM | – | – | –
8 | O=S1(=O)CCN(S(=O)(=O)c2ccccc2-c2ccc(-c3cnc4c(c3)OCCN4)c(F)c2)CC1 [Example 392, 7-{2′-[(1,1-Dioxidothiomorpholin-4-yl)sulfonyl]-3-fluorobiphenyl-4-yl}-3,4-dihydro-2H-pyrido[3,2-b][1,4]oxazine] | 1 nM | 16 nM | – | – | –
9 | CNS(=O)(=O)c1ccccc1-c1ccc(-c2cnc(N)nc2)c(F)c1 [Example 288, 4′-(2-Aminopyrimidin-5-yl)-3′-fluoro-N-methylbiphenyl-2-sulfonamide trifluoroacetic acid salt] | 103 nM | 420 nM | – | – | –
10 | COC[C@H](C)NS(=O)(=O)c1ccccc1-c1ccc(-c2cnc(N)cn2)c(F)c1 [Example 175, (S)-4′-(5-Aminopyrazin-2-yl)-3′-fluoro-N-(1-methoxypropan-2-yl)-[1,1′-biphenyl]-2-sulfonamide] | 1 nM | 17 nM | – | – | –
11 | Nc1cnc(-c2ccc(-c3ccccc3CS(=O)(=O)c3ncccn3)cc2F)cn1 [Example 752, 5-{3-Fluoro-2′-[(pyrimidin-2-ylsulfonyl)methyl]biphenyl-4-yl}pyrazin-2-amine] | – | – | 135 nM | 299 nM | –
12 | Nc1ncc(-c2ccc(-c3cccnc3S(=O)(=O)C3CCOCC3)cc2F)cn1 [Example 831, 5-{2-Fluoro-4-[2-(tetrahydro-2H-pyran-4-ylsulfonyl)pyridin-3-yl]phenyl}pyrimidin-2-amine formic acid salt] | – | – | – | 79.2 nM | 131 nM
13 | NC(=O)NCCNS(=O)(=O)c1ccccc1-c1ccc(-c2cnc(N)cn2)c(F)c1 [Example 157, 4′-(5-Aminopyrazin-2-yl)N—N-[2-(carbamoylamino)ethyl]-3′-fluorobiphenyl-2-sulfonamide] | 10 nM | 1840 nM | – | – | –
14 | CC(C)(C)NS(=O)(=O)c1ccccc1-c1ccc(-c2ccc(N)nc2C#N)c(F)c1 [Example 437, 4′-(6-Amino-2-cyanopyridin-3-yl)-N-(tert-butyl)-3′-fluoro-[1,1′-biphenyl]-2-sulfonamide] | – | – | 23 nM | 381 nM | –
15 | Nc1ncc(-c2ccc(-c3ccccc3S(=O)(=O)N3CCCCC3)cc2F)cn1 [Example 301, 5-[3-Fluoro-2′-(piperidin-1-ylsulfonyl)biphenyl-4-yl]pyrimidin-2-amine trifluoroacetic acid salt] | 13 nM | 204 nM | – | – | –
16 | CC(CO)(CO)NS(=O)(=O)c1ccccc1-c1ccc(-c2cnc(N)cn2)c(F)c1 [Example 147, 4′-(5-Aminopyrazin-2-yl)-3′-fluoro-N-[2-hydroxy-1-(hydroxymethyl)-1-methylethyl]biphenyl-2-sulfonamide] | 1 nM | 102 nM | – | – | –
17 | CC(C)(C)NS(=O)(=O)c1ccccc1-c1ccc(-c2coc(N)n2)c(F)c1 [Example 576, 4′-(2-Amino-1,3-oxazol-4-yl)-N-tert-butyl-3′-fluorobiphenyl-2-sulfonamide] | – | – | 8 nM | 116 nM | –
18 | CCNS(=O)(=O)c1ccccc1-c1ccc(-c2cnc(N)cn2)c(F)c1 [Example 16, 4′-(5-Aminopyrazin-2-yl)-N-ethyl-3′-fluorobiphenyl-2-sulfonamide] | 6 nM | 18 nM | – | – | –
19 | Nc1ncc(-c2ccc(-c3cccnc3S(=O)(=O)C3CCCC3)cc2F)cn1 [Example 809, 5-(4-(2-(Cyclopentylsulfonyl)pyridin-3-yl)-2-fluorophenyl)pyrimidine-2-amine hydrochloride] | – | – | 3.8 nM | 37.7 nM | –
20 | Nc1cnc(-c2ccc(-c3ccccc3Oc3ccnc(N)n3)cc2F)cn1 [Example 533, 4-{[4′-(5-Aminopyrazin-2-yl)-3′-fluorobiphenyl-2-yl]oxy}pyrimidin-2-amine] | – | – | 5 nM | 23 nM | –
21 | Nc1cnc(-c2ccc(-c3ccccc3S(=O)(=O)N3CCC(N)CC3)cc2F)cn1 [Example 65, 5-{2′-[(4-Aminopiperidin-1-yl)sulfonyl]-3-fluorobiphenyl-4-yl}pyrazin-2-amine] | 49 nM | 322 nM | – | – | –
22 | Nc1cnc(-c2ccc(-c3ccccc3OCC(F)(F)F)cc2F)cn1 [Example 484, 5-[3-Fluoro-2′-(2,2,2-trifluoroethoxy)biphenyl-4-yl]pyrazin-2-amine] | – | – | 78 nM | 3460 nM | –
23 | Nc1cnc(-c2ccc(-c3ccccc3S(=O)(=O)N3C[C@H]4C[C@@H]3CN4)cc2F)cn1 [Example 130, 5-(2′-((1R,4R)-2,5-Diazabicyclo[2.2.1]heptan-2-ylsulfonyl)-3-fluoro-[1,1′-biphenyl]-4-yl)pyrazin-2-amine] | 129 nM | 633 nM | – | – | –
24 | COc1cc(-c2ccccc2S(=O)(=O)NC(C)(C)C)ccc1-c1cnc(N)cn1 [Example 570, 4′-(5-Aminopyrazin-2-yl)-N-tert-butyl-3′-methoxybiphenyl-2-sulfonamide] | – | – | 35 nM | 1180 nM | –
25 | CC1(NS(=O)(=O)c2ccccc2-c2ccc(-c3cnc(N)cn3)c(F)c2)COC1 [Example 173, 4′-(5-Aminopyrazin-2-yl)-3′-fluoro-N-(3-methyloxetan-3-yl)biphenyl-2-sulfonamide] | 1 nM | 17 nM | – | – | –
